One data set concerns rabbits. Description: Immunization of rabbits, antibody titers (double diffusion in agarose gel, reverse radial diffusion, passive hemagglutination). The format is in vivo, rabbit. To be noted: for production of specific antibodies, injected alone: rabbits, Ada2Me 5 mM, AdaMeC 33 mM. The method, then: (§1) The low molecular weight drugs 3,5-dimethyl-1-adamantanamine hydrochloride (Ada2Me) and 5-methyl-1-adamantanamine 3-carboxylic acid (AdaMeC) can also be incorporated into the Fmoc-Leu-Asp gels (10 mg/ml=21 mM) at concentrations of […] and 33 mM, respectively. At higher total concentrations, (>5 mM Ada2Me or >33 mM AdaMeC) these agents inhibit gelation. […] Fmoc-Leu-Asp alone produced antibodies with titers no greater than 1:4.
Female random-bred rabbits were immunized three times, at weekly intervals and bled on the 24th day. A full dose was used for the first two immunizations, and a half of the full dose for the third immunization. Full doses of the BSA conjugates were 100 μg total protein. Before injections, AdaMeC-BSA and AdaMeC-Bal-BSA solutions were diluted with equal volumes of complete Freund's adjuvant, but AdaMeC+dipeptide gel was diluted with an equal volume of 0.01M phosphate buffer; pH 7.4. The volume of immunogen solutions injected each time was 1 ml. Immune sera were analyzed by two immunoprecipitation assays, the double diffusion in agarose gel and the reverse radial immunodiffusion, as described by Oudin, J. Meth. Enzymol., 70, 166-98 (1980). As shown in FIG. 8A double diffusion in agarose was used to determine the titer of antibodies recognizing AdaMeC-containing conjugates in sera of rabbits immunized with AdaMeC-coupled with or without a beta-alanine (Bal) spacer to BSA in complete Freunds adjuvant or with AdaMeC mixed with Fmoc-Leu-Asp without adjuvant. The antisera were tested against each of the three immunogens and compared to sera of rabbits injected with either AdaMeC or Fmoc-Leu-Asp-alone. And as shown in FIG. 8B the passive hemagglutination test, as described in Adler, F. L. & Adler, L. T., Meth. Enzymol., 70, 455-66 (1980), was used to analyze antisera of rabbits immunized with each of the three AdaMeC conjugates after challenge with the three AdaMeC conjugates, AdaMeC alone or Ada2Me. In the first two assays, the solid phase was 1% agarose containing 0.8% sodium chloride. The sample volumes were 25 μl. The probes were incubated for 72 h at 37° C. […]

The nature of data set [1]: Incorporation of low molecular weight drugs into Fmoc-Leu-Asp gels. The format is physicochemical. To be noted: Fmoc-Leu-Asp gel 10 mg/ml=21 mM. The method, then:
as §1

For data set [2] the following is noted: methanol and cyclohexane; cited from earlier work.
Data set [3] can be described thus: Aqueous gel formation of Fmoc-protected peptides. The format is physicochemical. The note with it: for Gel formed / Gel formed (minimum conc., %): aqueous gels. How it is done: Aqueous gels of the synthesized compounds can be made by several methods which are outlined here and more fully described in the examples.
1. Finely ground dipeptide or tripeptide compound is suspended in boiling water, the mixture is briefly and vigorously mixed or shaken and left to cool. Between 50-60° C. gelation occurrs. This procedure can be repeated to obtain a more homogeneous mixture and a stronger gel.
2. The dipeptide or tripeptide compound is dissolved in a minimal volume of organic solvent which is miscible in water, and at room temperature a small volume of the solution is added to a large volume of water with rapid mixing, after which the gel forms.
3. Methods 1 and 2 can be combined.
(§2) Boil 10 ml water and suspend in it 0.8% finely ground compound 5 of Table 2. Strongly shake or stir the suspension then let stand 10-15 minutes. On cooling the solution becomes turbid at 50-60° C. and at room temperature a gel forms. The gel can be reheated, agitated and recooled. When repeated several times, a stronger gel forms.

Data set [4] in a line: Solubility in water (Example 2). The format is physicochemical. How it is done:
as §2
Compound 5 is soluble below 0.8%. At concentrations below 0.4% little or no gel forms. When such a solution is evaporated to 50% volume and then heated and cooled, a gel forms.

Data set [5] can be described thus: Low strain oscillatory rheology (Rheometrics RFSII). The format is physicochemical. The method, then:
(triangles.) and 20° C. (circles). Other experimental conditions are as described for FIG. 6B.
Other experimental conditions and symbols are as described for FIG. 6C.
Of particular interest in this invention are the gels formed with Fmoc-Leu-Asp. At concentrations between 1 mg/ml and 1.5 mg/ml solutions of Fmoc-Leu-Asp undergo an abrupt increase in light scattering at both 20° C. and 60° C., as shown in FIG. 6A wherein 1 ml solutions in 1 cm diameter cylindrical cells were measured with a Brookhaven Instruments BI30ATN apparatus using a 633 nm 10 mW laser. When a solution of 2 mg/ml dipeptide is cooled from 100° C. to 60° C., viscoelastic parameters characteristic of a gel are obtained by low strain oscillatory measurements. The storage shear storage modulus, G', a measure of the elastic strength of the material, reaches a stable level of 80 Pa within several minutes (FIG. 6B). These measurements were made using a Rheometrics RFSII instrument1. The maximal shear strain was 1% for oscillatory deformation at a frequency of 1 rad/s. […] NY Acad. Sci. 408, 1-10, (1983) or F-actin, as shown in Janmey P. A. et al., Biochemistry 27, 8218-8227 (1988). […] G', shear storage modulus, depends weakly on frequency from 0.1 to 100 rad/s, and is much larger than the shear loss modulus G" (FIG. 6C). […]

Data set [6] in a line: Gel drying (evaporation of water). The format is physicochemical. The method, then: Gels containing either 0.5-0.6% or 0.8% compound 5, gelatin, or starch are disolved in water at 90° C. and briefly cooled. The solutions (0.8 ml) are poured into shallow plastic dishes (17 mm inner diameter). On reaching room temperature, the dishes are weighed and left with desicants but without vacuum to dry. […] After 15 hours, the compound 5 gel has lost 57% of its water, but the gelatine and starch solutions have lost 70% and 87% of their water, respectively.

Data set [7] in a line: Preparation of gels in ethylether. The format is physicochemical. To be noted: diethylether gel, -5° C. The method, then:
Suspend 150-200 mg finely ground compound 5 of table 2 in 10 mL boiling diethylether. Shake suspension, filter and let sit 30-60 minutes at -5° C. On cooling a gel forms. The peptide concentration can be measured by weighing the gel, and evaporating the solvent in vacuum to a constant weight. In this way a solute concentration of 1-1.2% was found.

The nature of data set [8]: Shear modulus by free oscillations using a torsion pendulum. The format is physicochemical. The method, then: From this curve is calculated the shear modulus G^1.
The shear modulus was measured by free oscillations using a torsion pendulum. The theory and description of the method are described in Plazek D., Vrancke., Berge J., Trans. Soc. Rheol. 2, 38-47 (1958); Ferry J. Viscoelastic Properties of Polymers, Wiley New York (1980), and Janmey P., et al., J. Rheol. 27, 135-153 (1993). Gels are formed by method 1 using Tris buffer pH7.4. The peptide concentration in FIG. 1 is 2.5 mg/ml (0.25%). […] This denotes the moderately high elastic strength of this gel.

The conditions of data set [9]: chloroform; cited from earlier work.

Residues, ends and D or L forms follow the SMILES beside them. *: point of attachment. Fmoc = O=C(OCC1c2ccccc2-c2ccccc21)*; Boc = CC(C)(C)OC(=O)*

As for `CC12CC3CC(C)(C1)CC(N)(C3)C2.Cl` [Ada2Me, 3,5-dimethyl-1-adamantanamine hydrochloride], the “production of specific antibodies, injected alone” value in the data set with rabbits is “neither Ada2Me (5 mM) nor AdaMeC (33 mM) produced specific antibodies”. For the same molecule, in [1], the “concentration incorporated into Fmoc-Leu-Asp gels” value was determined as 1000 µM and the “total concentration that inhibits gelation” value is over 5 mM.
For `CC12CC3CC(N)(C1)CC(C(=O)O)(C3)C2.Cl` (stereo not shown) [AdaMeC, 5-methyl-1-adamantanamine 3-carboxylic acid hydrochloride], the “production of specific antibodies, injected alone” value in the data set with rabbits was “neither Ada2Me (5 mM) nor AdaMeC (33 mM) produced specific antibodies”. In addition, in data set [1], the “concentration incorporated into Fmoc-Leu-Asp gels” value came out at 33000 µM and the “total concentration that inhibits gelation” value was over 33 mM.
Turning to `CCCCCCCCCCCCCCCC(=O)c1ccc(OC(=O)[C@H](C)NC(=O)OCc2ccccc2)c([N+](=O)[O-])c1` [N-benzyl-oxycarbonyl L-alanine 4-hexadecanoyl-2nitrophenyl ester], in data set [2], the “concentration at which thermally reversible gels form” value was “below 1%”.
Turning to `NC12CC3CC(CC(C3)C1)C2` [adamantamine], the “antibody production in rabbits” value in the data set with rabbits (trapped in Fmoc-Leu-Asp gels without additional adjuvant, versus covalently linked to BSA and injected with adjuvant) is recorded as “at least as efficiently”.
Regarding `CC[C@H](C)[C@H](NC(=O)OCC1c2ccccc2-c2ccccc21)C(=O)N[C@@H](CC(=O)O)C(=O)O` [compound 2, Fmoc--ile--Asp] (Fmoc-Ile-Asp-OH), in data set [3], the Gel formed entry is on record as “Yes” and the “Gel formed (minimum conc., %)” value is recorded as 0.4%.
With `CC(C)C[C@H](NC(=O)OCC1c2ccccc2-c2ccccc21)C(=O)N[C@@H](CC(=O)O)C(=O)O` [compound 5, Fmoc--Leu--Asp] (Fmoc-Leu-Asp-OH), in [4], the “concentration at which soluble in water” value is “below 0.8%”. The “storage shear modulus G'” value in data set [5] (2 mg/ml, cooled from 100° C. to 60° C., 1% maximal shear strain, 1 rad/s, stable level within several minutes) worked out at 80 Pa. Besides, the “fall of both shear moduli (G', G") on strain, factor” value in [5] (samples strained to 10%) is 100. Besides, in data set [6] (0.5-0.6% or 0.8% in water dissolved at 90° C.), the “gel formation on cooling” value is “forms a gel on cooling”. In data set [6] (after 15 hours, with desicants, without vacuum, room temperature), this molecule gave a water lost of 57%. Moreover, the “gel formation with boric acid” value in data set [3] (0.8% in 3.5% boric acid in boiling water, on cooling) is on record as “a gel forms”. Besides, the “temperature at which the solution becomes turbid on cooling” value in data set [3] (0.8% in boiled water) was 50-60 °C. For the same molecule, in [3], the Gel formed result is “Yes” and the “Gel formed (minimum conc., %)” value came out at 0.5%. Besides, the “gel formation in glycerol solution” value in [3] (solutions of 70% glycerol) is reported as “forms gels”. For the same molecule, the “concentration at which little or no gel forms” value in data set [3] (water) is reported as “below 0.4%”. Moreover, in [7], the “solute concentration in the gel” value is reported as 1-1.2%. Further, the shear modulus in [8] (2.5 mg/ml (0.25%), Tris buffer pH7.4, gel formed by method 1) is given as 3.1 Pa. Also, the saturation concentration in [8] (Tris buffer pH7.4) was about 5 mg/mL.
Consider `CC[C@H](C)[C@H](NC(=O)[C@@H](NC(=O)[C@@H](NC(=O)OC(C)(C)C)C(C)C)C(C)C)C(=O)OC` [t-butoxycarbonyl-valyl-valylisoleucine methylester] (Boc-Val-Val-Ile-OMe), for which the critical micelle concentration in [9] is reported as 2.5 mM.

Source of the values: US5955434A, “Gel-forming polypeptide derivatives” (Brigham & Women's Hospital, priority 1996, dated 1999).
